Experimental data taken from ChEMBL document CHEMBL4152365, “Discovery of DS-6930, a potent selective PPARγ modulator. Part I: Lead identification” (Bioorg Med Chem, 2018).
Converted amounts (≈) assume the structure as drawn. The source made the active and inactive calls. The calls are words filed in the database; no cut-off is given here.

Columns and labels:
[1] = Metabolic stability in human liver microsomes after 0.5 hrs; assay type: ADME, microsome; conditions: read-out: Stability
[2] = target: T1, Peroxisome proliferator-activated receptor gamma (Homo sapiens) (UniProt P37231); assay: Agonist activity at recombinant human GAL4-DBD fused PPARgamma LBD expressed in COS7 cells at 10 uM after 24 hrs by luciferase reporter gene assay relative to rosiglitazone; assay type: cell-based
T1 sequence (whole entry): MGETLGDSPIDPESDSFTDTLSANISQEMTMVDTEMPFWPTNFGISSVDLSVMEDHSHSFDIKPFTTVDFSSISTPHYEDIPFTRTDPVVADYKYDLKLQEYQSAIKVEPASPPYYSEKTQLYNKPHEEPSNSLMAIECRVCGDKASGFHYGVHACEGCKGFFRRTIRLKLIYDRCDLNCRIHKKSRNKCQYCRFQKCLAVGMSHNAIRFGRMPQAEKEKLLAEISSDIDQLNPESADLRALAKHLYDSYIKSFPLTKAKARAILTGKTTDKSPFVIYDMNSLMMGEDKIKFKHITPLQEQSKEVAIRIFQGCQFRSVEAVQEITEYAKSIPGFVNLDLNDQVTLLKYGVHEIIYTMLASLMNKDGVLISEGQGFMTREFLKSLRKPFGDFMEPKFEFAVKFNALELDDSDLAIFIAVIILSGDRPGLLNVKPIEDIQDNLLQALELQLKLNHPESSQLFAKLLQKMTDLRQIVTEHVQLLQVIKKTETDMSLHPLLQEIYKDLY

[3] = Aqueous thermodynamic solubility of the compound in pH 6.8 solution up to 4 hrs by HPLC-UV analysis; assay type: physicochemical; conditions: read-out: Therm_solubility
[4] = 1-octanol/PBS distribution co-efficient, log D of the compound at […] at pH 7.4 after 30 mins by HPLC-MS/MS analysis; assay type: physicochemical
[5] = target: T2, Peroxisome proliferator-activated receptor delta (Homo sapiens) (UniProt Q03181); assay: Agonist activity at PPARdelta (unknown origin) at 10 uM
T2 sequence (whole entry): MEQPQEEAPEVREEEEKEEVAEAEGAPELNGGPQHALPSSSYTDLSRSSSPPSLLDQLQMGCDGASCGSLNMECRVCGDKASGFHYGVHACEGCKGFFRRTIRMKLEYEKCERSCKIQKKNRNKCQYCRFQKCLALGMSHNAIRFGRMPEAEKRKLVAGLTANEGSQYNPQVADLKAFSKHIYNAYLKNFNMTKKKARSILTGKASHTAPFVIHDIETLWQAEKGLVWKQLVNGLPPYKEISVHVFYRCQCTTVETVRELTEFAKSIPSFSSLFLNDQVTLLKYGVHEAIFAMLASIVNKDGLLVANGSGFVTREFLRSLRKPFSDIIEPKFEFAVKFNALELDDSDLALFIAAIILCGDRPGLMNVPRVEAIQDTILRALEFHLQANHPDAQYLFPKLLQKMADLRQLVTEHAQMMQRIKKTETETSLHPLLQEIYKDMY

[6] = target: T3, Peroxisome proliferator-activated receptor gamma (Homo sapiens, UniProt P37231); assay: Agonist activity at recombinant human GAL4-DBD fused PPARgamma LBD expressed in COS7 cells after 24 hrs by luciferase reporter gene assay; assay type: cell-based
T3 sequence (P37231 whole entry): T1 sequence (whole entry)

[7] = target: T4, Peroxisome proliferator-activated receptor alpha (Homo sapiens, UniProt Q07869); assay: Agonist activity at recombinant human GAL4-DBD fused PPARalpha LBD expressed in COS7 cells after 24 hrs by luciferase reporter gene assay; assay type: cell-based
T4 sequence (Q07869 whole entry): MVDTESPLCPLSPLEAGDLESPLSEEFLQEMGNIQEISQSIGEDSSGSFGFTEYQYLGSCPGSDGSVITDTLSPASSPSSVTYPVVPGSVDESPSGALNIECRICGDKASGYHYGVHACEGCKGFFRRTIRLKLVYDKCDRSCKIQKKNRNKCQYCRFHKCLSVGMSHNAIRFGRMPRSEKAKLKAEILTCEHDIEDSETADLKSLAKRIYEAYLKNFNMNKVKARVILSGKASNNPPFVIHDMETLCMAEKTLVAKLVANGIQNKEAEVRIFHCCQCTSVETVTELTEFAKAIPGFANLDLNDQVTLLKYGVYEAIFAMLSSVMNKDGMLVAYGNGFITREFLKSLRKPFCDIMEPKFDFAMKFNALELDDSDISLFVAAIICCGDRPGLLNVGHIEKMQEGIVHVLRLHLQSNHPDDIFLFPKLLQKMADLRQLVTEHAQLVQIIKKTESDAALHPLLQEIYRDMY

Mus musculus [8] = assay: Toxicity in hyperglycemic KK/Ta mouse assessed as body weight gain at 30 mg/kg/day, po administered through diet for 3 days relative to control; assay type: organism-based; conditions: in vivo, 72 h
[9] = Plasma concentration in hyperglycemic KK/Ta mouse at 30 mg/kg/day, po administered through diet for 3 days measured on day 3 post last dose; assay type: ADME, organism-based
Mus musculus [10] = assay: Glucose-lowering effect in hyperglycemic KK/Ta mouse assessed as reduction in plasma glucose level at 30 mg/kg/day, po administered through diet for 3 days relative to control; assay type: functional; parameters: scale not given: the % may be the effect or the level left
[11] = target: T5, Peroxisome proliferator-activated receptor alpha (Homo sapiens) (UniProt Q07869); assay: Agonist activity at recombinant human GAL4-DBD fused PPARalpha LBD expressed in COS7 cells at 10 uM after 24 hrs by luciferase reporter gene assay relative to 2-(4-tert-Butylphenoxy)-3-[4-[2-[(4-pyridin-2-ylbenzoyl)amino]ethoxy]; assay type: cell-based
T5 sequence (whole entry): T4 sequence (Q07869 whole entry)

SMILES	remaining at 0.5 h [1] [%]	Emax [2] [%]	solubility thermodynamic at 4 h [3] [µg/mL]	logD at 0.5 h [4]	Activity [5]	EC50 [6] [nM]	EC50 [7] [nM]	Activity (Mus musculus [8]) [%]	concentration at 72 h [9] [ng/mL]	Activity (Mus musculus [10]) [%]	Emax [11] [%]
Cl.Cn1c(COc2cccc(C(=O)O)c2)nc2ccc(Oc3ccccc3)cc21	100	90	2	1.8	inactive						
Cc1cc(Oc2ccc3nc(COc4ccc(C(=O)O)cc4)n(C)c3c2)cc(C)c1N		91				797					
Cc1cc(Oc2ccc3nc(COc4ccccc4)n(C)c3c2)cc(C)c1N		73				318					
Cc1cc(F)cc(Oc2ccc3nc(COc4cccc(C(=O)O)c4)n(C)c3c2)c1	100	84	0.5 (≈ 1.23 µM)	2.7		21	> 10000	1.7	190	58.3	29
Cc1cc(Oc2ccc3nc(COc4cccc(C#N)c4)n(C)c3c2)cc(C)c1N		92				43					
Cn1c(COc2cccc(C(=O)O)c2)nc2ccc(Oc3ccc4ccoc4c3)cc21	100	79	0.8 (≈ 1.93 µM)	2.4		188	> 10000	2.5	380	48.3	37
COc1ccc2nc(COc3ccc(CC4SC(=O)NC4=O)cc3)n(C)c2c1 (stereo unspecified) [RIVOGLITAZONE]		126				43					
Cc1cc(Oc2ccc3nc(COc4ccccc4C(=O)O)n(C)c3c2)cc(C)c1N		52				6090					
Cc1cc(Oc2ccc3nc(COc4ccccc4C#N)n(C)c3c2)cc(C)c1N		80				391					
CC(=O)c1ccccc1OCc1nc2ccc(Oc3cc(C)c(N)c(C)c3)cc2n1C		96				356					
Cl.Cn1c(COc2cccc(C(=O)O)c2)nc2ccc(Oc3ccc4c(c3)CCO4)cc21	87	60	7.6	1.7		87	> 10000				8
Cc1cc(Oc2ccc3nc(COc4cccc(C(=O)O)c4)n(C)c3c2)ccc1F.Cl	69	61		2.3		62	> 10000	3.5	190	49.4	28
Cn1c(COc2cccc(C(=O)O)c2)nc2ccc(Oc3c(F)cccc3F)cc21	85	76		1.8		1330	> 10000				19
Cn1c(COc2cccc(C(=O)O)c2)nc2ccc(Oc3cc(F)cc(Cl)c3)cc21	78	78	0.9 (≈ 2.11 µM)	2.8		23	> 10000	3.1	370	57.5	43
Cl.Cn1c(COc2cccc(C(=O)O)c2)nc2ccc(Oc3ccc(F)c(Cl)c3)cc21		79		2.8		64		3.7	170	30	52
Cn1c(COc2cccc(C(=O)O)c2)nc2ccc(Oc3ccc(F)cc3F)cc21	100	77	11 (≈ 26.8 µM)	1.9		143	> 10000	3.7	370	37.6	17
Cc1cc(Oc2ccc3nc(COc4ccc(CC5SC(=O)NC5=O)cc4)n(C)c3c2)cc(C)c1N (stereo unspecified) [EFATUTAZONE]		100				0.038					
Cc1ccc(F)cc1Oc1ccc2nc(COc3cccc(C(=O)O)c3)n(C)c2c1	64	84	0.6 (≈ 1.48 µM)	2.5		39	> 10000	5.1		26.4	17
CCOc1cccc(Oc2ccc3nc(COc4cccc(C(=O)O)c4)n(C)c3c2)c1		56		2.4	inactive	40	> 10000	3.3		22	37
Cc1ccc(F)c(Oc2ccc3nc(COc4cccc(C(=O)O)c4)n(C)c3c2)c1	83	111	11 (≈ 27.1 µM)	2.4		139	> 10000	1.6	120	49.4	37
Cl.Cn1c(COc2cccc(C(=O)O)c2)nc2ccc(Oc3ccc(F)c(F)c3)cc21	100	71		2		118	> 10000	3.4	160	56	39
CC(=O)c1cccc(OCc2nc3ccc(Oc4cc(C)c(N)c(C)c4)cc3n2C)c1		86				65					
Cc1cc(Oc2ccc3nc(COc4cccc(C(=O)O)c4)n(C)c3c2)cc(C)c1N.Cl.Cl	88	73	11	1.4							
Cn1c(COc2cccc(C(=O)O)c2)nc2ccc(Oc3cccc(F)c3F)cc21	88	86		2.1		230		4.3		35.8	52
Cc1cc(Oc2ccc3nc(COc4ccc(C#N)cc4)n(C)c3c2)cc(C)c1N		79				395					
CCc1ccc2ccc(F)cc2c1CNC(=O)c1c(OC)cc(O)c2c1OC1=CC(O)=C(C(C)=O)C(=O)[C@]12C		64				12					
Cn1c(COc2cccc(C(=O)O)c2)nc2ccc(Oc3cc(F)cc(F)c3)cc21		54	10 (≈ 24.4 µM)	2.3		95	> 10000	4.4	360	39.5	33
CC(=O)c1ccc(OCc2nc3ccc(Oc4cc(C)c(N)c(C)c4)cc3n2C)cc1		70				340					
Cn1c(COc2cccc(C(=O)O)c2)nc2ccc(Oc3ccccc3F)cc21		125	12 (≈ 30.6 µM)	1.7	inactive	1430	> 10000				21
